Converted amounts (≈) assume the structure as drawn.
Assays:
[1] = Solubility in 0.1 N HCl; type: physicochemical
Adenosine receptor A1 [2] = target: T1, Adenosine receptor A1 (Bos taurus, UniProt P28190)
T1 sequence (P28190 whole entry): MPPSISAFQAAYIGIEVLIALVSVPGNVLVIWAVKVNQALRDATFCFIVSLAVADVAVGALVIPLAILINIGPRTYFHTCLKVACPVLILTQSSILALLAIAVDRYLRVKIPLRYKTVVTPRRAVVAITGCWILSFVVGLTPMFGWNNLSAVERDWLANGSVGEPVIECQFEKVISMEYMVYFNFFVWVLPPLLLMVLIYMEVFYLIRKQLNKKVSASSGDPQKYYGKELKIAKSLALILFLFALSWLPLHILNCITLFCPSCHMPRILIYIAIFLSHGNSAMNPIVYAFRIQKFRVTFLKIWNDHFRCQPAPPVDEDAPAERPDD
Description: Binding affinity against bovine brain adenosine A1 receptor by using N6-[3H]- cyclohexyladenosine

[3] = Partition coefficient (logP); type: physicochemical; details: octanol/water
Adenosine receptor A1 [4] = target: T2, Adenosine receptor A1 (Rattus norvegicus, UniProt P25099); experiment: Binding affinity against rat brain adenosine A1 receptor by using N6-[3H]- cyclohexyladenosine as radioligand
T2 sequence (P25099 whole entry): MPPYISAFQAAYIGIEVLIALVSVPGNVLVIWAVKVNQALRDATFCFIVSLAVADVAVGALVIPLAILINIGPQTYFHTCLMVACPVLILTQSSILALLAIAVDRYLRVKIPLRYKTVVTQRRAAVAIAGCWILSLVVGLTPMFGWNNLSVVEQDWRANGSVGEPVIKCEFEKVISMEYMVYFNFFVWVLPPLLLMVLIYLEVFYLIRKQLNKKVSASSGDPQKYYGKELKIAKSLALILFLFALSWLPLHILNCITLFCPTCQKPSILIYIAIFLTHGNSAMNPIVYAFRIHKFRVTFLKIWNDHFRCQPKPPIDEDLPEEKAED

[5] = Solubility in 0.1 M phosphate buffer at pH 7.4; type: physicochemical
[6] = Equilibrium constant (pKa) was determined.; type: physicochemical
Bos taurus = species: Bos taurus; experiment: log(1000/IC50 determined from bovine brain membrane) expressed as potency; type: functional
[7] = phosphate buffer, read-out: Solubility

IC50 (Adenosine receptor A1 [2]) [nM]	SMILES	Potency (Bos taurus)	other results
755	CCn1c(=O)c2[nH]c(-c3ccc(S(=O)(=O)O)cc3)nc2n(CC)c1=O		solubility [1]: > 8000 µg/mL; logP [3]: -0.97; IC50 (Adenosine receptor A1 [4]): 5540 nM; solubility [5, 7]: > 57000 µg/mL; pKa [6]: < 2
0.05	CCCn1c(=O)c2nc(-c3ccc(S(=O)(=O)NCCN(C)C)cc3)[nH]c2n(CCC)c1=O		solubility [1]: 19900 µg/mL (≈ 43000 µM); logP [3]: 3.32; IC50 (Adenosine receptor A1 [4]): 6.5 nM; solubility ([5]; buffer): 50 µg/mL (≈ 108 µM); pKa [6]: 6
	Cn1c(=O)c2nc(-c3ccc([N+](=O)[O-])cc3N)[nH]c2n(C)c1=O	2.6	
	Cn1c(=O)c2nc(-c3ccc(O)cc3)[nH]c2n(C)c1=O	2.7	
3.4	CCCn1c(=O)c2[nH]c(-c3ccc(S(=O)(=O)O)cc3)nc2n(CCC)c1=O		solubility [1]: 1300 µg/mL (≈ 3310 µM); logP [3]: -0.03; IC50 (Adenosine receptor A1 [4]): 120 nM; solubility [5, 7]: > 24000 µg/mL; pKa [6]: < 2
	CN(C)c1ccc(-c2nc3c(=O)n(C)c(=O)n(C)c3[nH]2)cc1	2.74	
0.24	CCCn1c(=O)c2nc(-c3ccc(S(=O)(=O)NCCCC(=O)OCC)cc3)[nH]c2n(CCC)c1=O		IC50 (Adenosine receptor A1 [4]): 18.5 nM
	Cn1c(=O)c2nc(-c3ccccc3[N+](=O)[O-])[nH]c2n(C)c1=O	1.1	
4.2	CCn1c(=O)c2nc(-c3ccc(S(=O)(=O)NCC(C)O)cc3)[nH]c2n(CC)c1=O (stereo not drawn)		IC50 (Adenosine receptor A1 [4]): 138 nM
6.5	Cc1ccccc1-c1nc2c([nH]1)c(=O)n(C)c(=O)n2C		
	Cn1c(=O)c2nc(-c3ccc(F)cc3)[nH]c2n(C)c1=O	2.46	
	CCn1c(=O)c2nc(-c3ccc(Cl)cc3N)[nH]c2n(CC)c1=O	3.1	
0.08	CCCn1c(=O)c2[nH]c(-c3ccc(S(=O)(=O)NCCCN(C)C)cc3)nc2n(CCC)c1=O		IC50 (Adenosine receptor A1 [4]): 8.2 nM
	Cn1c(=O)[nH]c2[nH]c(-c3ccccc3)nc2c1=O	2.6	
	Cn1c(=O)c2nc(-c3ccc(N)cc3)[nH]c2n(C)c1=O	2.76	
8420	CCn1c(=O)c2[nH]c(-c3cccc(S(=O)(=O)O)c3)nc2n(CC)c1=O		IC50 (Adenosine receptor A1 [4]): 30700 nM
	Cn1c(=O)c2nc(-c3ccc(C(=O)O)cc3)[nH]c2n(C)c1=O	1.3	
	CCn1c(=O)c2[nH]c(-c3ccccc3)nc2n(CC)c1=O		solubility [1]: 1 µg/mL (≈ 3.52 µM); logP [3]: 2.93; solubility ([5]; buffer): 6 µg/mL (≈ 21.1 µM); pKa [6]: 9.1
21.9	Cn1c(=O)c2[nH]c(-c3ccc(S(=O)(=O)O)cc3)nc2n(C)c1=O		
0.15	CCCn1c(=O)c2nc(-c3ccc(N)cc3N)[nH]c2n(CCC)c1=O	3.82	
	C=CCn1c(=O)c2[nH]c(-c3ccc(Cl)cc3N)nc2n(C)c1=O	2.7	

IC50 (Adenosine receptor A1 [2]) [nM]	SMILES	Potency (Bos taurus)	other results
36.6	CCn1c(=O)c2[nH]c(-c3ccc(S(=O)(=O)N4CCSCC4)cc3)nc2n(CC)c1=O		IC50 (Adenosine receptor A1 [4]): 646 nM
	Cn1c(=O)c2nc(-c3ccc(Cl)cc3)[nH]c2n(C)c1=O	3.1	
0.7	CCCn1c(=O)c2[nH]c(-c3ccccc3)nc2n(CCC)c1=O		
	CN(C)c1cccc(-c2nc3c(=O)n(C)c(=O)n(C)c3[nH]2)c1	1.1	
	Cn1c(=O)c2nc(-c3ccc4ccccc4c3)[nH]c2n(C)c1=O	2.26	
	Cn1c(=O)c2nc(-c3ccccc3F)[nH]c2n(C)c1=O	1.9	
6.5	CCn1c(=O)c2nc(-c3ccc(S(=O)(=O)N4CCN(C)CC4)cc3)[nH]c2n(CC)c1=O		IC50 (Adenosine receptor A1 [4]): 190 nM
	Cc1ccc(-c2nc3c(=O)n(C)c(=O)n(C)c3[nH]2)c(N)c1	2	
	COc1cc(OC)cc(-c2nc3c(=O)n(C)c(=O)n(C)c3[nH]2)c1	0.3	
	CCCn1c(=O)c2nc(-c3ccc(Cl)cc3N)[nH]c2n(CCC)c1=O	4.3	
1140	C=CCn1c(=O)c2nc(-c3ccc(S(=O)(=O)O)cc3)[nH]c2n(CC=C)c1=O		IC50 (Adenosine receptor A1 [4]): 7440 nM
	Cn1c(=O)c2nc(-c3ccc(Cl)c(Cl)c3)[nH]c2n(C)c1=O	2.3	
10.3	C=CCn1c(=O)c2nc(-c3ccc(S(=O)(=O)NCCCN(C)C)cc3)[nH]c2n(CC=C)c1=O		
	Cn1c(=O)c2nc(-c3ccc(-c4ccccc4)cc3)[nH]c2n(C)c1=O	2.46	
0.07	CCCn1c(=O)c2nc(-c3ccc(S(=O)(=O)NCCCCN(C)C)cc3)[nH]c2n(CCC)c1=O		IC50 (Adenosine receptor A1 [4]): 7.5 nM
	Cn1c(=O)c2nc(-c3ccc(Br)cc3)[nH]c2n(C)c1=O	3.12	
5.5	Cn1c(=O)c2[nH]c(-c3ccc4ccccc4c3)nc2n(C)c1=O		
3.3	CCn1c(=O)c2nc(-c3ccc(S(=O)(=O)NCCN(C)C)cc3)[nH]c2n(CC)c1=O		solubility [1]: 11500 µg/mL (≈ 26500 µM); logP [3]: 2.57; IC50 (Adenosine receptor A1 [4]): 116 nM; solubility [5, 7]: 110 µg/mL (≈ 253 µM); pKa [6]: 6.8
29.4	CCn1c(=O)c2nc(-c3cccc(S(=O)(=O)NCCN(C)C)c3)[nH]c2n(CC)c1=O		IC50 (Adenosine receptor A1 [4]): 553 nM
	Cn1c(=O)c2nc(-c3ccccc3C(=O)O)[nH]c2n(C)c1=O	-0.4	
	CCCn1c(=O)c2nc(-c3ccccc3)[nH]c2n(CCC)c1=O	3.15	

IC50 (Adenosine receptor A1 [2]) [nM]	SMILES	Potency (Bos taurus)	other results
	Cc1cc(O)cc(C)c1-c1nc2c(=O)n(C)c(=O)n(C)c2[nH]1	1.52	
	COc1cccc(-c2nc3c(=O)n(C)c(=O)n(C)c3[nH]2)c1	1.7	
	CCCn1c(=O)c2[nH]c(-c3ccc(Cl)cc3N)nc2n(CCC)c1=O		solubility [1]: 0.4 µg/mL (≈ 1.11 µM); logP [3]: 4.02; solubility [5, 7]: < 0.1 µg/mL; pKa [6]: 8.4
	Cn1c(=O)c2nc(-c3ccc(Cl)cc3N)[nH]c2n(C)c1=O	3.46	
	Cn1c(=O)c2nc(-c3ccc([N+](=O)[O-])cc3)[nH]c2n(C)c1=O	2.1	
0.91	CCn1c(=O)c2[nH]c(-c3ccc(S(N)(=O)=O)cc3)nc2n(CC)c1=O		IC50 (Adenosine receptor A1 [4]): 47 nM
	Cn1c(=O)c2nc(-c3ccccc3O)[nH]c2n(C)c1=O	2	
	C=CCn1c(=O)c2nc(-c3ccc(Cl)cc3N)[nH]c2n(CC=C)c1=O	3.1	
	Cn1c(=O)c2nc(-c3cccc(O)c3)[nH]c2n(C)c1=O	2.22	
	CCOc1ccc(-c2nc3c(=O)n(C)c(=O)n(C)c3[nH]2)cc1	2.7	
13	CCn1c(=O)c2[nH]c(-c3ccc(S(=O)(=O)N4CCOCC4)cc3)nc2n(CC)c1=O		IC50 (Adenosine receptor A1 [4]): 310 nM
	Cn1c(=O)c2nc(-c3ccc(I)cc3)[nH]c2n(C)c1=O	2.89	
	Cn1c(=O)c2nc(-c3cccc4ccccc34)[nH]c2n(C)c1=O	1.1	
	CCc1ccc(-c2nc3c(=O)n(C)c(=O)n(C)c3[nH]2)cc1	3.1	
	Cn1c(=O)c2nc(-c3cccc(F)c3)[nH]c2n(C)c1=O	2.4	
	Cn1c(=O)c2nc(-c3cccc(Br)c3)[nH]c2n(C)c1=O	2	
	Cc1ccc(-c2nc3c(=O)n(C)c(=O)n(C)c3[nH]2)cc1	3.1	
5.5	Cn1c(=O)c2nc(-c3ccccc3N)[nH]c2n(C)c1=O	2.26	
12.5	Cn1c(=O)c2[nH]c(-c3ccccc3F)nc2n(C)c1=O		
	Cn1c(=O)c2nc(-c3cccc(N)c3)[nH]c2n(C)c1=O	2	
1.6	CCn1c(=O)c2[nH]c(-c3ccc(S(=O)(=O)NCCCN(C)C)cc3)nc2n(CC)c1=O		IC50 (Adenosine receptor A1 [4]): 70 nM

IC50 (Adenosine receptor A1 [2]) [nM]	SMILES	Potency (Bos taurus)	other results
0.35	Cn1c(=O)c2[nH]c(-c3ccc(Cl)cc3N)nc2n(C)c1=O		
1.75	Cn1c(=O)c2[nH]c(-c3ccc(N)cc3)nc2n(C)c1=O		
	CCCCOc1ccc(-c2nc3c(=O)n(C)c(=O)n(C)c3[nH]2)cc1	2.4	
3.3	CCn1c(=O)c2[nH]c(-c3ccc(N(C)C)cc3)nc2n(CC)c1=O		IC50 (Adenosine receptor A1 [4]): 118 nM
	CC(C)c1ccc(-c2nc3c(=O)n(C)c(=O)n(C)c3[nH]2)cc1	2.6	
	Cc1cccc(-c2nc3c(=O)n(C)c(=O)n(C)c3[nH]2)c1	1.89	
	CCn1c(=O)c2nc(-c3ccc(Br)cc3)[nH]c2n(CC)c1=O	3	
	COc1ccccc1-c1nc2c(=O)n(C)c(=O)n(C)c2[nH]1	0.46	
	CSc1ccc(-c2nc3c(=O)n(C)c(=O)n(C)c3[nH]2)cc1	2.7	
	COc1ccc(-c2nc3c(=O)n(C)c(=O)n(C)c3[nH]2)cc1	2.82	
	C=CCn1c(=O)c2[nH]c(-c3ccccc3)nc2n(C)c1=O	2.4	
0.75	CCCn1c(=O)c2nc(-c3ccccc3N)[nH]c2n(CCC)c1=O		solubility [1]: 4 µg/mL (≈ 12.2 µM); logP [3]: 3.54; IC50 (Adenosine receptor A1 [4]): 41 nM; solubility [5, 7]: < 1 µg/mL; pKa [6]: 9.1
	C=CCn1c(=O)c2[nH]c(-c3ccc(C)cc3N)nc2n(C)c1=O	2.15	
0.75	Cn1c(=O)c2[nH]c(-c3ccc(Br)cc3)nc2n(C)c1=O		
	Cn1c(=O)c2nc(-c3ccc(N)cc3N)[nH]c2n(C)c1=O	2.1	
	COc1ccc(-c2nc3c(=O)n(C)c(=O)n(C)c3[nH]2)c(OC)c1	0.7	
	Cc1ccccc1-c1nc2c(=O)n(C)c(=O)n(C)c2[nH]1	2.19	
	Cn1c(=O)c2nc(-c3cccc([N+](=O)[O-])c3)[nH]c2n(C)c1=O	1.3	
	Cn1c(=O)c2nc(-c3cccc(C(=O)O)c3)[nH]c2n(C)c1=O	0	
